From PMC12126525, “Mechanism of ATP hydrolysis in the Hsp70 BiP nucleotide-binding domain” (Nature Communications, 2025)
Several values for one entry are separate records, joined by “and”; a condition that tells them apart may be missing. Identical values can stand only once.

Target: BiP NBD (Homo sapiens, UniProt P11021)
Assay: Single turn-over assay (anion exchange quantification of ATP/ADP)
Assay type: biochemical
Design: His6 (N, cleaved yes); made in house; host or cells: E. coli BL21-(DE3)-Lemo, pET28a vector
Description: We next set out to benchmark these kinetic parameters to independently measured values. Out of the 11 free parameters of the functional cycle, 3 parameters can be commonly accessed with classical experiments (kcat, koff2 and koff5 ). We benchmarked kcat with standard single-turn over experiments[44],[46]. For these experiments, the NBD·ATP complex is initially formed by incubation of an excess of ATP with BiP NBD at 4 °C. At this temperature, it is generally assumed that the hydrolysis rate can be neglected. Unbound nucleotides were removed by gel filtration and the purified NBD·ATP complex was flash frozen. The complex was then incubated at 37 °C for variable time, after which the reaction was quenched by addition of HCl. This step unfolds the NBD, thus immediately stopping the reaction and releasing all educts and products into solution. From the resulting samples, the [ATP]/[ADP] ratio was determined by anion exchange chromatography.
The single turnover experiment starts from a batch of stoichiometrically assembled NBD^ATP complex. ATP hydrolysis and ATP dissociation occur on parallel kinetic pathways, according to Eqs. (1) and (2). At very low protein concentrations [NBD^ATP]≪KD1 , rebinding of ATP after dissociation, as well as the buildup of the products ADP and Pi, can be neglected and the observed ATP decay follows the analytical equation35 ATP/ATP0=koff1/kcat*+kcat/kcat*e^−kcat*t with36 kcat*=kcat+koff1
At proteins concentrations [NBD^ATP]≳KD1 , as it was used in our experiments, ATP rebinding after dissociation cannot be neglected, which is competitive with the product ADP that builds up over time. […]
The ATPase activity of BiP NBD was determined under single-turnover conditions as previously described with minor modifications of the protocol. The main modification was to replace the radioactivity-based detection by a label free anion-exchange based quantification. […] The relative ATP/ADP ratio was determined using an anion chromatography-based assay.

Sequence of BiP NBD (P11021 19-406): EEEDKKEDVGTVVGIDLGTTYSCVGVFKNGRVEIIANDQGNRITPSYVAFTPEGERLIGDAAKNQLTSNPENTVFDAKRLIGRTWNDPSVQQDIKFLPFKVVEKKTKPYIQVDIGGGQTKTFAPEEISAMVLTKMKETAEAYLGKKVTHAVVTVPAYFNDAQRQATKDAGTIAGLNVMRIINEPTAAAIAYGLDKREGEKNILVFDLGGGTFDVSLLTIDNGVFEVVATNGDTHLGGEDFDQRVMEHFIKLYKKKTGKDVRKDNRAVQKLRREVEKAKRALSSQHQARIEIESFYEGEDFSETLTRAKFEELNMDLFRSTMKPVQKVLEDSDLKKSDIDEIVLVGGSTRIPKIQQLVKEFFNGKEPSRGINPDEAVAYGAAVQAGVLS

## Nc1ncnc2c1ncn2[C@@H]1O[C@H](COP(=O)(O)OP(=O)(O)OP(=O)(O)O)[C@@H](O)[C@H]1O [ATP]
37 °C, monoexponential fit
  kcat* (single turn-over): 0.071 s⁻¹ and 0.071 ± 0.02 s⁻¹
Supplementary Fig 11b
  kcat single turn-over average: 0.071 s⁻¹
Supplementary Fig 11b, replicates [1]-[6]
  kcat single turn-over: 0.085 s⁻¹ and 0.070 s⁻¹ and 0.057 s⁻¹ and 0.075 s⁻¹ and 0.073 s⁻¹
